The record followed here is US9192577B2, “Pharmaceutical compositions comprising a basic drug compound, a surfactant, and a physiologically tolerable water soluble acid” (Janssen Pharmaceutica NV, priority 2002, dated 2015).

What is called melting point is the temperature of the solid-liquid transition. For orientation: CC50 means the concentration at which the toxic effect on the cells reaches its halfway point. A high value points to lower toxicity to the cells. Usually IC50 stands for the concentration at which inhibition is half-maximal. A low value points to greater potency in that assay.

The structures appear in SMILES notation.

Data set [1] concerns HIV. Nature of the data set: in vitro anti-HIV assay: inhibition of HIV-induced cytopathic effect in MT-4 cells (MTT). It counts as cell-based. Conditions: for pSI: pSI = pCC50-pIC50 (selectivity index CC50/IC50). A general note: Protection from cytopathic effect is a common read-out in antiviral testing.
Protocol: (§1) A rapid, sensitive and automated assay procedure was used for the in vitro evaluation of anti-HIV agents. […] Inhibition of the HIV-induced cytopathic effect was used as the end point. The viability of both HIV- and mock-infected cells was assessed spectrophotometrically via the in situ reduction of 3-(4,5-dimethylthiazol-2-yl)-2,5-diphenyltetrazolium bromide (MTT). The 50% cytotoxic concentration (CC50 in M) was defined as the concentration of compound that reduced the absorbance of the mock-infected control sample by 50%. The percent protection achieved by the compound in HIV-infected cells was calculated by the following formula:
(§2) [formula] whereby (ODT)HIV is the optical density measured with a given concentration of the test compound in HIV-infected cells; (ODC)HIV is the optical density measured for the control untreated HIV-infected cells; (ODC)MOCK is the optical density measured for the control untreated mock-infected cells; all optical density values were determined at 540 nm. The dose achieving 50% protection according to the above formula was defined as the 50% inhibitory concentration (IC50 in M). The ratio of CC50 to IC50 was defined as the selectivity index (SI).
The nature of data set [2]: cytotoxicity (CC50) in mock-infected MT-4 cells (MTT). In kind it is cell-based. Conditions: human, mock-infected MT-4 cells, −log CC50, MTT.
Protocol: as §1, §2

In the case of `Cc1cc(/C=C\Cl)cc(C)c1Nc1ccnc(Nc2ccc(C#N)cc2)n1`, the melting point came out at 250 °C.
In the case of `Cc1cc(C=C(Br)Br)cc(C)c1Nc1ccnc(Nc2ccc(C#N)cc2)n1`, the melting point is 223 °C.
`CCCCN(C)C(=O)/C=C/c1cc(C)c(Oc2ccnc(Nc3ccc(C#N)cc3)n2)c(C)c1` displayed a melting point of 212 °C.
Take `Cc1ccc(N(C)C)c(C)c1Nc1ccnc(Nc2ccc(C#N)cc2)n1`: the melting point stood at 132 °C.
For the compound `Cc1cc(/C=C/c2cccnc2)cc(C)c1Nc1ccnc(Nc2ccc(C#N)cc2)n1`, the melting point was 120 °C.
Compound `Cc1cc(C(=O)CC#N)cc(C)c1Nc1ccnc(Nc2ccc(C#N)cc2)n1` had a melting point of 150 °C.
On to `CCOCc1ccc(Oc2ccnc(Nc3ccc(C#N)cc3)n2)c(C)c1` [Compound 105], for which the melting point came out at 140 °C. The compound further yielded a pSI in data set [1] of less than −3.2. This compound also had a CC50 in data set [2] of more than 100 µM.
The compound `Cc1cc(/C=C(/C#N)C(=O)C(C)(C)C)cc(C)c1Nc1ccnc(Nc2ccc(C#N)cc2)n1` [Compound 106] gave a melting point of 193 °C. In data set [1], this compound yielded a pSI of −2.5. Further, half-maximal cytotoxicity in data set [2] (CC50) was put at 6.31 µM.
With `Cc1cc(/C=C(/F)C#N)cc(C)c1Nc1ccnc(Nc2ccc(C#N)cc2)n1` [Compound 110], the melting point came to 254 °C. This compound gave an IC50 in data set [1] (Human immunodeficiency virus 1, MT4, −log IC50, 50% protection against HIV-induced cytopathic effect in MT-4 cells, MTT) of 0.00251 µM. In data set [1], this compound displayed a pSI of −4.3.
Take `Cc1cc(/C=C/C(=O)N(C)C)cc(C)c1Nc1ccnc(Nc2ccc(C#N)cc2)n1` [Compound 112]: the melting point is more than 264 °C. In data set [1], this compound showed a pSI of −4.2. The CC50 in data set [2] is 12.6 µM.
For `Cc1cc(/C=C/C(=O)N(C)CCC#N)cc(C)c1Nc1ccnc(Nc2ccc(C#N)cc2)n1` [Compound 114] the same measures were 168 °C, −3.5 and 7.94 µM.
`Cc1cc(-c2ccc(C#N)o2)cc(C)c1Nc1ccnc(Nc2ccc(C#N)cc2)n1` [Compound 126] returned a melting point of more than 260 °C. The compound further showed a pSI in data set [1] of −3.5. Besides, in data set [2], the CC50 is 12.6 µM.
For the compound `Cc1cc(/C=C/C(=O)N(C)C2CCN(C)CC2)cc(C)c1Oc1ccnc(Nc2ccc(C#N)cc2)n1` [Compound 210], the pSI in data set [1] is recorded as −3.5. This compound gave a CC50 in data set [2] of 15.8 µM.
For `Cc1cc(/C=C/C(=O)N2CCOCC2)cc(C)c1Oc1ccnc(Nc2ccc(C#N)cc2)n1` [Compound 216], in data set [1], the pSI is given as −3.6. In data set [2], this compound showed a CC50 of 10 µM.
